Data as given in US9938262B2, “Benzamides” (Merck Patent GmbH, priority 2011, dated 2018).
Like-named read-outs stand apart in the source and are kept apart here.

Target: T1, FSHR (Homo sapiens, UniProt P23945)
T1 construct: expressed in transfected cells; host or cells: CHO (Cho-FSHR-LUC-1-1-43)
Assay: EC50 of cyclic AMP production in CHO FSHR cells + EC20 FSH (Assay A)
Assay type: cell-based
Conditions: for EC50: CHO FSHR cells + EC20 FSH, read-out: Assay A EC50 of cyclic AMP production; for activation at 5 µM: 1 h, effect relative to maximum response of the FSH standard
Method in brief: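 cAMP HTRF ratio (665/620 nm) read after 1 h, 37 °C exposure of CHO-FSHR cells to compound in presence of EC20 FSH ([…]) and IBMX 200 μM. Responses given relative to FSH standard maximum; EC50 derived.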

T1 sequence (P23945 18-695): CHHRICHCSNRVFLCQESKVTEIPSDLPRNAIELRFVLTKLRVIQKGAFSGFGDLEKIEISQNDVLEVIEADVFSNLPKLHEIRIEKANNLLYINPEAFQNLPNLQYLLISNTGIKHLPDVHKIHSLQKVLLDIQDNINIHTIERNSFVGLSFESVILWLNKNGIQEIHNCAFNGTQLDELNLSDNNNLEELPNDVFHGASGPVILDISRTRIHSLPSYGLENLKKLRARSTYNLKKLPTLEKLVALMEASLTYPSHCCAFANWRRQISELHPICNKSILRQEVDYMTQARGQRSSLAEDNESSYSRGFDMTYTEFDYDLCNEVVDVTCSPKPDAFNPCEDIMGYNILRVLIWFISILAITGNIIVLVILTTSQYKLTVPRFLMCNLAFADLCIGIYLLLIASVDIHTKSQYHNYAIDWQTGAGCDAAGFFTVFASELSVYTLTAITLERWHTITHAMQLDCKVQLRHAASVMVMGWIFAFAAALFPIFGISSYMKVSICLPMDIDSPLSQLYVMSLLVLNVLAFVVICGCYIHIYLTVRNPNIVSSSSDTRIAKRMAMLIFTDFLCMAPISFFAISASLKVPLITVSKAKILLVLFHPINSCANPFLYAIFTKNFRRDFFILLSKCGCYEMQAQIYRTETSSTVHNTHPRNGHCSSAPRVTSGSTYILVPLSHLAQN
T1 sequence (P01215 25-116 partner): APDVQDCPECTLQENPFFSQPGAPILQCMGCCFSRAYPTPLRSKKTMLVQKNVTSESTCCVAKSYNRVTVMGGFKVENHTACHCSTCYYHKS
T1 sequence (P01225 19-129 partner): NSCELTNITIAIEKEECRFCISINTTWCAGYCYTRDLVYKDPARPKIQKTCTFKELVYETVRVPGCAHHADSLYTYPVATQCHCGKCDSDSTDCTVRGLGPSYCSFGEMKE

## Cc1csc(-c2cccc(CNC(=O)c3ccc(N4CCN(c5ccccc5C)CC4)c(NC(=O)c4ccco4)c3)c2)n1 [Compound 262]
Table 1
  EC50: 0.1 to 1 µM

## Cc1ccccc1N1CCN(c2ccc(C(=O)NCc3cccc(S(N)(=O)=O)c3)cc2NC(=O)c2ccco2)CC1 [Compound 266]
Table 2
  EC50: < 0.1 µM

## Cc1ccccc1N1CCN(c2ccc(C(=O)NC3(c4cccc(C(=O)O)c4)CC3)cc2NC(=O)c2ccco2)CC1 [Compound 267]
Table 2
  EC50: 1 to 10 µM

## CCNC(=O)NCCCNC(=O)c1ccc(N2CCN(c3ccccc3C)CC2)c(NC(=O)c2ccc(C)o2)c1 [Compound 270]
Table 2
  EC50: 0.1 to 1 µM

## COC(=O)NCCCNC(=O)c1ccc(N2CCN(c3ccccc3C)CC2)c(NC(=O)c2ccc(C)o2)c1 [Compound 271]
Table 2
  EC50: 0.1 to 1 µM

## Cc1ccc(C(=O)Nc2cc(C(=O)NCCCN3CCCC3=O)ccc2N2CCN(c3ccccc3N)CC2)o1 [Compound 272]
Table 2
  activation at 5 µM: 30%

## CC(C)(C)OC(=O)NC1CCN(c2ccc(C(=O)NCCCN3CCCC3=O)cc2NC(=O)c2coc(C3CC3)n2)CC1 [Compound 273]
Table 2
  EC50: 1 to 10 µM

## Cc1ccccc1N1CCN(c2ccc(C(=O)NCCCc3c[nH]cn3)cc2NC(=O)c2coc(C3CC3)n2)CC1 [Compound 274]
Table 2
  EC50: 0.1 to 1 µM

## Cc1ccccc1N1CCN(c2ccc(C(=O)NCCCn3cccn3)cc2NC(=O)c2coc(C3CC3)n2)CC1 [Compound 275]
Table 2
  EC50: 0.1 to 1 µM

## COc1cccc(CNC(=O)c2ccc(N3CCN(c4ccccc4C)CC3)c(NC(=O)c3coc(C4CC4)n3)c2)c1 [Compound 276]
Table 2
  EC50: 0.1 to 1 µM

## COc1ccccc1CNC(=O)c1ccc(N2CCN(c3ccccc3C)CC2)c(NC(=O)c2coc(C3CC3)n2)c1 [Compound 277]
Table 2
  EC50: 0.1 to 1 µM

## Cc1ccccc1N1CCN(c2ccc(C(=O)NCCCc3ccccc3)cc2NC(=O)c2coc(C3CC3)n2)CC1 [Compound 278]
Table 2
  EC50: 1 to 10 µM

## Cc1ccccc1N1CCN(c2ccc(C(=O)NCCCn3cccc3)cc2NC(=O)c2coc(C3CC3)n2)CC1 [Compound 279]
Table 2
  EC50: 0.1 to 1 µM

## Cc1ccccc1N1CCN(c2ccc(C(=O)NCC(C)CN3CCCC3=O)cc2NC(=O)c2ccco2)CC1 (centres unmarked) [Compound 280]
Table 2
  EC50: 0.1 to 1 µM

## CCC(CCNC(=O)c1ccc(N2CCN(c3ccccc3C)CC2)c(NC(=O)c2ccco2)c1)N1CCCC1=O (centres unmarked) [Compound 281]
Table 2
  EC50: 0.1 to 1 µM

## Cc1ccccc1N1CCN(c2ccc(C(=O)NCCCC3CCOC3)cc2NC(=O)c2coc(C3CC3)n2)CC1 (centres unmarked) [Compound 282]
Table 2
  EC50: 0.1 to 1 µM

## Cc1ccccc1N1CCN(c2ccc(C(N)=O)cc2NC(=O)c2ccco2)CC1 [Compound 283]
Table 2
  EC50: 1 to 10 µM

## Cc1ccccc1N1CCN(c2ccc(C(=O)NCCCN3CCCC3=O)cc2NC(=O)c2cc(C3CC3)n[nH]2)CC1 [Compound 284]
Table 2
  EC50: 0.1 to 1 µM

## Cc1ccccc1N1CCN(c2ccc(C(=O)NCCCN3CCCC3=O)cc2NC(=O)c2nc(C3CC3)cs2)CC1 [Compound 285]
Table 2
  EC50: 0.1 to 1 µM

## Cc1ccccc1N1CCN(c2ccc(C(=O)NCCN3CCCC3=O)cc2NC(=O)c2coc(C3CC3)n2)CC1 [Compound 288]
Table 2
  EC50: 0.1 to 1 µM

## Cc1ccccc1N1CCN(c2ccc(C(=O)NCCCN3C(=O)CSC3=O)cc2NC(=O)c2coc(C3CC3)n2)CC1 [Compound 289]
Table 2
  EC50: 0.1 to 1 µM

## COc1ccc(CNC(=O)c2ccc(N3CCN(c4ccccc4C)CC3)c(NC(=O)c3coc(C4CC4)n3)c2)cc1OC [Compound 290]
Table 2
  EC50: 0.1 to 1 µM

## Cc1ccccc1N1CCN(c2ccc(C(=O)NCCCn3ccnc3)cc2NC(=O)c2coc(C3CC3)n2)CC1 [Compound 291]
Table 2
  EC50: 0.1 to 1 µM

## Cc1ccccc1N1CCN(c2ccc(C(=O)NCCCn3ccnc3C)cc2NC(=O)c2coc(C3CC3)n2)CC1 [Compound 292]
Table 2
  EC50: 0.1 to 1 µM

## Cc1ccccc1N1CCN(c2ccc(C(=O)NCCc3c[nH]cn3)cc2NC(=O)c2coc(C3CC3)n2)CC1 [Compound 293]
Table 2
  EC50: 0.1 to 1 µM

## Cc1ccccc1N1CCN(c2ccc(C(=O)NCC(=O)NC3CCCC3)cc2NC(=O)c2coc(C3CC3)n2)CC1 [Compound 294]
Table 2
  EC50: 1 to 10 µM

## COc1cc(CNC(=O)c2ccc(N3CCN(c4ccccc4C)CC3)c(NC(=O)c3coc(C4CC4)n3)c2)cc(OC)c1 [Compound 295]
Table 2
  EC50: 0.1 to 1 µM

## Cc1ccccc1N1CCN(c2ccc(C(=O)NCCCN3C(=O)CN(C)C3=O)cc2NC(=O)c2coc(C3CC3)n2)CC1 [Compound 296]
Table 2
  EC50: 0.1 to 1 µM

## Cc1ccccc1N1CCN(c2ccc(C(=O)NC3CCN(S(C)(=O)=O)CC3)cc2NC(=O)c2coc(C3CC3)n2)CC1 [Compound 297]
Table 2
  EC50: 0.1 to 1 µM

## Cc1ccc(C(=O)Nc2cc(C(=O)NCCCN3CCCC3=O)ccc2N2CCN(c3c(C)cccc3C)CC2)o1 [Compound 298]
Table 2
  EC50: 1 to 10 µM

## Cc1cccc(C)c1N1CCN(c2ccc(C(=O)NCCCN3CCCC3=O)cc2NC(=O)c2coc(C3CC3)n2)CC1 [Compound 299]
Table 2
  EC50: 1 to 10 µM

## Cc1nc(C(=O)Nc2cc(C(=O)NCCc3cnc[nH]3)ccc2N2CCN(c3ccccc3C)CC2)cs1 [Compound 301]
Table 2
  EC50: 1 to 10 µM

## Cc1ccccc1N1CCN(c2ccc(C(=O)NCCc3cnc[nH]3)cc2NC(=O)C2CC2)CC1 [Compound 302]
Table 2
  EC50: 1 to 10 µM

## Cc1ccc(C(=O)Nc2cc(C(=O)NCCCO)ccc2N2CCN(c3ccccc3C)CC2)o1 [Compound 303]
Table 2
  EC50: 1 to 10 µM

## Cc1ccccc1N1CCN(c2ccc(C(=O)NCCN3C(=O)CCC3=O)cc2NC(=O)c2ccco2)CC1 [Compound 305]
Table 2
  EC50: < 0.1 µM

## Cc1ccccc1N1CCN(c2ccc(C(=O)NCCCN3CCCC3=O)cc2NC(=O)c2cc(C3CC3)on2)CC1 [Compound 308]
Table 2
  EC50: 0.1 to 1 µM

## Cc1ccccc1N1CCN(c2ccc(C(=O)N[C@H]3O[C@@H](CO)[C@@H]4OC(C)(C)O[C@@H]43)cc2NC(=O)c2coc(C3CC3)n2)CC1 [Compound 309]
Table 2
  EC50: 0.1 to 1 µM

## Cc1cc(F)ccc1N1CCN(c2ccc(C(=O)NCCCN3CCCC3=O)cc2NC(=O)c2coc(C3CC3)n2)CC1 [Compound 312]
Table 2
  EC50: 0.1 to 1 µM

## O=C(NCCCN1CCCC1=O)c1ccc(N2CCN(c3ccccc3Br)CC2)c(NC(=O)c2coc(C3CC3)n2)c1 [Compound 313]
Table 2
  EC50: 0.1 to 1 µM

## CCOC(=O)c1c[nH]nc1NC(=O)c1ccc(N2CCN(c3ccccc3C)CC2)c(NC(=O)c2coc(C3CC3)n2)c1 [Compound 314]
Table 2
  activation at 5 µM: 38%

## Cc1ccccc1N1CCN(c2ccc(C(=O)NCCCN3CCCC3=O)cc2NC(=O)c2cc(C3CC3)nn2C)CC1 [Compound 315]
Table 2
  activation at 5 µM: 47%

## Cc1ccccc1N1CCN(c2ccc(C(=O)NCCc3cn(C)cn3)cc2NC(=O)c2coc(C3CC3)n2)CC1 [Compound 317]
Table 2
  EC50: 0.1 to 1 µM

## CC(=O)NCCCCNC(=O)c1ccc(N2CCN(c3ccccc3C)CC2)c(NC(=O)c2coc(C3CC3)n2)c1 [Compound 318]
Table 2
  EC50: 0.1 to 1 µM

## Cc1ccccc1N1CCN(c2ccc(C(=O)NCCCN3CCOC3=O)cc2NC(=O)c2coc(C3CC3)n2)CC1 [Compound 321]
Table 2
  EC50: 0.1 to 1 µM

## CNCc1cccc(CNC(=O)c2ccc(N3CCN(c4ccccc4C)CC3)c(NC(=O)c3ccco3)c2)c1 [Compound 323]
Table 2
  EC50: 0.1 to 1 µM

## CCn1nc(C2CC2)cc1C(=O)Nc1cc(C(=O)NCCCN2CCCC2=O)ccc1N1CCN(c2ccccc2C)CC1 [Compound 324]
Table 2
  EC50: 1 to 10 µM

## Cc1ccccc1N1CCN(c2ccc(C(=O)NC3(c4cccc(C(N)=O)c4)CC3)cc2NC(=O)c2ccco2)CC1 [Compound 325]
Table 2
  EC50: 0.1 to 1 µM

## Cc1ccccc1N1CCN(c2ccc(C(=O)NCc3cccc(CN(C)C(=O)OC(C)(C)C)c3)cc2NC(=O)c2ccco2)CC1 [Compound 326]
Table 2
  EC50: > 10 µM

## Cc1ccccc1N1CCN(c2ccc(C(=O)NCc3cccc(CN)c3)cc2NC(=O)c2ccco2)CC1 [Compound 327]
Table 2
  EC50: 0.1 to 1 µM

## Cc1ccccc1N1CCN(c2ccc(C(=O)NCCCN3C(=O)CCC3C)cc2NC(=O)c2coc(C3CC3)n2)CC1 (centres unmarked) [Compound 330]
Table 2
  EC50: 0.1 to 1 µM

## Cc1ccccc1N1CCN(c2ccc(C(=O)NCCCN3CCN(C)C3=O)cc2NC(=O)c2coc(C3CC3)n2)CC1 [Compound 331]
Table 2
  EC50: < 0.1 µM

## Cc1ccccc1N1CCN(c2ccc(C(=O)NCCCN3C(=O)OCC3C)cc2NC(=O)c2coc(C3CC3)n2)CC1 (centres unmarked) [Compound 332]
Table 2
  EC50: 0.1 to 1 µM

## Cc1ccccc1N1CCN(c2ccc(C(=O)NCCC(C)N3CCCC3=O)cc2NC(=O)c2coc(C3CC3)n2)CC1 (centres unmarked) [Compound 333]
Table 2
  EC50: 0.1 to 1 µM

## Cc1ccc(C(=O)Nc2cc(C(=O)NCCCc3cn[nH]c3)ccc2N2CCN(c3ccccc3C)CC2)o1 [Compound 334]
Table 2
  EC50: 0.1 to 1 µM

## Cc1ccccc1N1CCN(c2ccc(C(=O)N[C@@H](CO)c3ccccc3)cc2NC(=O)c2coc(C3CC3)n2)CC1 [Compound 343]
Table 2
  EC50: 1 to 10 µM

## Cc1ccccc1N1CCN(c2ccc(C(=O)NC3CCN(C4CCCC4)C3)cc2NC(=O)c2ccco2)CC1 (centres unmarked) [Compound 345]
Table 2
  EC50: 1 to 10 µM

## Cc1ccccc1N1CCN(c2ccc(C(=O)NC(C)c3ccccc3)cc2NC(=O)c2coc(C3CC3)n2)CC1 (centres unmarked) [Compound 346]
Table 2
  EC50: 0.1 to 1 µM

## Cc1ccccc1N1CCN(c2ccc(C(=O)NCCN3C(=O)CCC3=O)cc2NC(=O)c2coc(C3CC3)n2)CC1 [Compound 347]
Table 2
  EC50: > 10 µM

## Cc1ccccc1N1CCN(c2ccc(C(=O)NCc3cccc(CN(C)C)c3)cc2NC(=O)c2coc(C3CC3)n2)CC1 [Compound 348]
Table 2
  EC50: 0.1 to 1 µM

## Cc1ccccc1N1CCN(c2ccc(C(=O)NCCN3CCOC3=O)cc2NC(=O)c2coc(C3CC3)n2)CC1 [Compound 350]
Table 2
  EC50: 0.1 to 1 µM

## Cc1ccccc1N1CCN(c2ccc(C(=O)NCCCC(=O)O)cc2NC(=O)c2coc(C3CC3)n2)CC1 [Compound 351]
Table 2
  EC50: 0.1 to 1 µM

## Cc1ccccc1N1CCN(c2ccc(C(=O)NCCCN3C(=O)[C@@H]4C=C[C@H]3C4)cc2NC(=O)c2coc(C3CC3)n2)CC1 [Compound 352]
Table 2
  EC50: 0.1 to 1 µM

## Cc1ccccc1N1CCN(c2ccc(C(=O)NCCCN3C(=O)[C@@H]4CC[C@H]3C4)cc2NC(=O)c2coc(C3CC3)n2)CC1 [Compound 353]
Table 2
  EC50: 0.1 to 1 µM

## Cc1ccccc1N1CCN(c2ccc(C(=O)NCCCN3C(=O)CCC3(C)C)cc2NC(=O)c2coc(C3CC3)n2)CC1 [Compound 354]
Table 2
  EC50: 0.1 to 1 µM

## CC(=O)NCC(C)(C)CNC(=O)c1ccc(N2CCN(c3ccccc3C)CC2)c(NC(=O)c2coc(C3CC3)n2)c1 [Compound 355]
Table 2
  EC50: 0.1 to 1 µM
